Source: patent publication US20100267561A1, “HERBICIDAL PYRIDAZINONE DERIVATIVES” (priority 2007, published 2010)

How the values were obtained:
Assay in all cases: Test B pre-/postemergence plant response
Type in all cases: in vivo
[1] = tested on: velvetleaf (Abutilon theophrasti); settings: for Velvetleaf plant response rating: 8 g ai/ha
In short: (§1)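 Seeds were sown and sprayed preemergence, while plants at 2 to 18 cm (1- to 4-leaf stage) got postemergence sprays. Compounds were formulated in a non-phytotoxic solvent mixture with surfactant. After 13 to 15 days in a greenhouse, injury was rated visually against untreated controls, 0 (no effect) to 100 (complete control).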

[2] = tested on: bermudagrass (Cynodon dactylon); settings: for Bermudagrass plant response rating: 8 g ai/ha
In short: as §1

[3] = tested on: wheat (Triticum aestivum); settings: for Wheat plant response rating: 8 g ai/ha
In short: as §1

[4] = tested on: goosegrass (Eleusine indica); settings: for Goosegrass plant response rating: 8 g ai/ha
In short: as §1

[5] = tested on: lambsquarters (Chenopodium album); settings: for Lambsquarters plant response rating: 8 g ai/ha
In short: as §1

[6] = tested on: woolly cupgrass (Eriochloa villosa); settings: for Cupgrass, Woolly plant response rating: 8 g ai/ha
In short: as §1

soybean (Glycine max) = settings: for Soybean plant response rating: 8 g ai/ha
In short: as §1

[7] = tested on: green foxtail (Setaria viridis); settings: for Foxtail, Green plant response rating: 8 g ai/ha
In short: as §1

[8] = tested on: giant foxtail (Setaria faberii); settings: for Foxtail, Giant plant response rating: 8 g ai/ha
In short: as §1

corn (Zea mays) = settings: for Corn plant response rating: 8 g ai/ha
In short: as §1

[9] = tested on: Russian thistle (Salsola iberica); settings: Preemergence
In short: as §1

[10] = tested on: yellow nutsedge (Cyperus esculentus); settings: for Nutsedge, Yellow plant response rating: 8 g ai/ha
In short: as §1

kochia (Kochia scoparia) = settings: for Kochia plant response rating: 8 g ai/ha
In short: as §1

[11] = tested on: cocklebur (Xanthium strumarium); settings: for Cocklebur plant response rating: 8 g ai/ha
In short: as §1

[12] = Postemergence, 16 g ai/ha, scale 0 to 100
[13] = Postemergence, 62 g ai/ha, scale 0 to 100, 0 no effect, 100 complete control
[14] = Preemergence, 16 g ai/ha, scale 0 to 100 (0 no effect, 100 complete control)
[15] = Preemergence, 31 g ai/ha, scale 0 to 100 (0 no effect, 100 complete control)
[16] = Preemergence, 62 g ai/ha, 0 to 100 scale, 0 no effect, 100 complete control
[17] = Postemergence, 31 g ai/ha, scale 0 to 100, 0 no effect, 100 complete control
[18] = Preemergence, 31 g ai/ha, 0 to 100 scale, 0 no effect, 100 complete control
[19] = Preemergence, 62 g ai/ha, scale 0 to 100

CCc1cc(-c2ccc(Cl)cc2)nn1-c1c(OC(=O)C(C)(C)C)cnn(C)c1=O [Compound 40]
Velvetleaf plant response rating ([1]; postemergence, 0-100 scale): 0 | Plant response rating, Velvetleaf [1, 12]: 0 | Plant response rating, Velvetleaf [1, 13]: 0 | Plant response rating, Velvetleaf [1, 14]: 0 | Plant response rating, Velvetleaf [1, 15]: 0 | Plant response rating, Velvetleaf [1, 16]: 0 | Velvetleaf plant response rating ([1]; Preemergence, scale 0 to 100): 0 | Bermudagrass plant response rating ([2]; postemergence, 0-100 scale): 0 | Plant response rating, Bermudagrass [2, 12]: 60 | Plant response rating, Bermudagrass [2, 17]: 65 | Plant response rating, Bermudagrass [2, 13]: 98 | Bermudagrass plant response rating ([2]; Preemergence, scale 0 to 100 (0 no effect, 100 complete control)): 0 | Plant response rating, Bermudagrass [2, 14]: 90 | Plant response rating, Bermudagrass [2, 18]: 100 | Plant response rating, Bermudagrass [2, 19]: 100 | Wheat plant response rating ([3]; postemergence, 0-100 scale): 70 | Plant response rating, Wheat [3, 12]: 70 | Plant response rating, Wheat [3, 13]: 100 | Plant response rating, Wheat [3, 14]: 60 | Plant response rating, Wheat [3, 15]: 60 | Plant response rating, Wheat [3, 16]: 90 | Wheat plant response rating ([3]; Preemergence, scale 0 to 100): 5 | Goosegrass plant response rating ([4]; postemergence, 0-100 scale): 60 | Plant response rating, Goosegrass [4, 12]: 75 | Plant response rating, Goosegrass [4, 17]: 80 | Plant response rating, Goosegrass [4, 13]: 100 | Plant response rating, Goosegrass [4, 14]: 100 | Plant response rating, Goosegrass [4, 18]: 100 | Plant response rating, Goosegrass [4, 19]: 100 | Goosegrass plant response rating ([4]; Preemergence, scale 0 to 100): 98 | Lambsquarters plant response rating ([5]; postemergence, 0-100 scale): 0 | Plant response rating, Lambsquarters [5, 12]: 0 | Plant response rating, Lambsquarters [5, 17]: 0 | Plant response rating, Lambsquarters [5, 13]: 0 | Plant response rating, Lambsquarters [5, 14]: 0 | Plant response rating, Lambsquarters [5, 18]: 0 | Plant response rating, Lambsquarters [5, 19]: 0 | Lambsquarters plant response rating ([5]; Preemergence, scale 0 to 100): 0 | Cupgrass, Woolly plant response rating ([6]; postemergence, 0-100 scale): 98 | Plant response rating, Cupgrass, Woolly [6, 12]: 98 | Plant response rating, Cupgrass, Woolly [6, 17]: 100 | Plant response rating, Cupgrass, Woolly [6, 13]: 100 | Plant response rating, Cupgrass, Woolly [6, 14]: 100 | Plant response rating, Cupgrass, Woolly [6, 18]: 100 | Plant response rating, Cupgrass, Woolly [6, 19]: 100 | Cupgrass, Woolly plant response rating ([6]; Preemergence, scale 0 to 100): 15 | Soybean plant response rating (soybean (Glycine max); postemergence, 0-100 scale): 0 | Plant response rating, Soybean (soybean (Glycine max); [12]): 0 | Plant response rating, Soybean (soybean (Glycine max); [13]): 0 | Plant response rating, Soybean (soybean (Glycine max); [14]): 0 | Plant response rating, Soybean (soybean (Glycine max); [15]): 0 | Plant response rating, Soybean (soybean (Glycine max); [19]): 0 | Soybean plant response rating (soybean (Glycine max); Preemergence, scale 0 to 100): 0 | Foxtail, Green plant response rating ([7]; postemergence, 0-100 scale): 85 | Plant response rating, Foxtail, Green [7, 12]: 95 | Plant response rating, Foxtail, Green [7, 17]: 100 | Plant response rating, Foxtail, Green [7, 13]: 100 | Plant response rating, Foxtail, Green [7, 14]: 100 | Plant response rating, Foxtail, Green [7, 18]: 100 | Plant response rating, Foxtail, Green [7, 19]: 100 | Foxtail, Green plant response rating ([7]; Preemergence, scale 0 to 100): 90 | Foxtail, Giant plant response rating ([8]; postemergence, 0-100 scale): 100 | Plant response rating, Foxtail, Giant [8, 12]: 100 | Plant response rating, Foxtail, Giant [8, 17]: 100 | Plant response rating, Foxtail, Giant [8, 13]: 100 | Plant response rating, Foxtail, Giant [8, 14]: 100 | Plant response rating, Foxtail, Giant [8, 18]: 100 | Plant response rating, Foxtail, Giant [8, 19]: 100 | Foxtail, Giant plant response rating ([8]; Preemergence, scale 0 to 100): 100 | Corn plant response rating (corn (Zea mays); postemergence, 0-100 scale): 0 | Plant response rating, Corn (corn (Zea mays); [12]): 0 | Plant response rating, Corn (corn (Zea mays); [17]): 100 | Plant response rating, Corn (corn (Zea mays); [13]): 100 | Plant response rating, Corn (corn (Zea mays); [14]): 75 | Plant response rating, Corn (corn (Zea mays); [18]): 85 | Plant response rating, Corn (corn (Zea mays); [19]): 95 | Corn plant response rating (corn (Zea mays); Preemergence, scale 0 to 100): 55 | Plant response rating, Russian Thistle ([9]; 16 g ai/ha, scale 0 to 100 (0 no effect, 100 complete control)): 0 | Plant response rating, Russian Thistle ([9]; 31 g ai/ha, scale 0 to 100 (0 no effect, 100 complete control)): 0 | Plant response rating, Russian Thistle ([9]; 62 g ai/ha, scale 0 to 100): 0 | Russian Thistle plant response rating ([9]; 8 g ai/ha, scale 0 to 100): 0 | Nutsedge, Yellow plant response rating ([10]; postemergence, 0-100 scale): 0 | Plant response rating, Nutsedge, Yellow [10, 12]: 0 | Plant response rating, Nutsedge, Yellow [10, 17]: 0 | Plant response rating, Nutsedge, Yellow [10, 13]: 0 | Plant response rating, Nutsedge, Yellow [10, 14]: 0 | Plant response rating, Nutsedge, Yellow [10, 15]: 0 | Plant response rating, Nutsedge, Yellow [10, 19]: 0 | Nutsedge, Yellow plant response rating ([10]; Preemergence, scale 0 to 100): 0 | Kochia plant response rating (kochia (Kochia scoparia); postemergence, 0-100 scale): 0 | Plant response rating, Kochia (kochia (Kochia scoparia); [12]): 0 | Plant response rating, Kochia (kochia (Kochia scoparia); [17]): 0 | Plant response rating, Kochia (kochia (Kochia scoparia); [13]): 0 | Plant response rating, Kochia (kochia (Kochia scoparia); [14]): 0 | Plant response rating, Kochia (kochia (Kochia scoparia); [18]): 0 | Plant response rating, Kochia (kochia (Kochia scoparia); [19]): 0 | Kochia plant response rating (kochia (Kochia scoparia); Preemergence, scale 0 to 100): 0 | Cocklebur plant response rating ([11]; postemergence, 0-100 scale): 0 | Plant response rating, Cocklebur [11, 12]: 0 | Plant response rating, Cocklebur [11, 17]: 0 | Plant response rating, Cocklebur [11, 13]: 0 | Plant response rating, Cocklebur [11, 14]: 0 | Plant response rating, Cocklebur [11, 18]: 0 | Plant response rating, Cocklebur [11, 19]: 0 | Cocklebur plant response rating ([11]; Preemergence, scale 0 to 100): 0
